Assay results from paper PMC4301629 (PLoS ONE, 2015).

Experiments:
[1] = tested on: α1A-AR; test: Ca2+ transient response (FLIPR, fluo3) in α1A-AR transduced HEK-293/EBNA cells; assay type: cell-based; conditions: 100 μM Iso, α1A-AR_HEK-293/EBNA
Procedure: (§1) Prior to experiments, cells were transduced with baculovirus strains designed for transient expression of α1A-AR or aldehyde oxidase (negative control). This was performed by incubating cells with virus (MOI 100–150) for 3 to 4 h, followed by exchange into fresh serum free growth medium supplemented with 4 mM sodium butyrate (NaBu). Cells were grown for another 14 to 18 h and then examined for agonist-evoked responses in transient Ca^2+ release, IP accumulation or pERK activation assays. The surface receptor expression density was determined by flow cytometry via immunofluorescence labeling of an N-terminal HA epitope tag on the receptor and radioligand binding in partially purified membranes.
(§2) Cells were resuspended in Hank’s balanced salt solution (Invitrogen) supplemented with 2 mM CaCl2, 10 mM HEPES pH 7.4, 2.5 mM probenecid, plus 1g/L each of glucose and bovine serum albumin (BSA), and seeded in poly-D-lysine coated 96-well black plates with transparent bottom (Costar) at a density of 50,000 cells/0.1 mL per well. Cells were then incubated for 1 h at 37°C with an additional 0.1 mL of buffer containing 4 μM fluo3-AM that was diluted from a stock solution containing 1 mM fluo3-AM dye in DMSO with 10% pluronic acid. After dye loading incubation, plates were washed twice with 100 μL of buffer and refilled with 100 μL of assay buffer. In experiments testing the effect of antagonists, 25 μL of buffer from wells of washed cells were replaced with 25 μL of vehicle or 4× antagonist solution. Pre-incubation of ligand with dye-loaded cells proceeded for 5–30 minutes immediately prior to measurements of agonist-evoked responses. Agonist-evoked Ca^2+ mobilization responses of cell populations were monitored at room temperature simultaneously in all wells of the assay plate using the plate-imaging fluorometric reader FLIPR (MDS Analytical Technologies, Sunnyvale, CA). […] The amplitudes of Ca^2+ transient responses are reported as ΔF/F0, or fold-change in Ca^2+ dye fluorescence relative to the baseline signal ΔF/F0 = (F-F0)/F0 +1 (where ΔF is maximal fluorescence intensity observed following agonist application, F0 = baseline fluorescence, or average intensity measured over the 10 s interval prior to agonist application). Image acquisition rates were varied from 1 Hz during the first 100 s of measurements to 0.5 Hz for the remaining time of the recording.
(§3) Graphs shown reflect either pooled or representative data (see figure legends). For concentration-response analysis, results from Ca^2+ mobilization experiments were plotted as ΔF/F0 vs. agonist concentration and fit to a sigmoidal concentration-response equation using the GraphPad Prism software package. In cases where biphasic concentration-response curves were observed data were fit to a two-site concentration-response model: F(X)=R0+(Rmax−R0)[Fr1/(1+10^X-logEC50,1)+(1−Fr1)/(1+10^X-logEC50,2)] (1) , where X is the logarithm of the agonist concentration, R0 and Rmax are respectively the response minimum and maximum; Fr1 is the response fraction attributable to receptor characterized by half effective concentration of the first response phase (EC50,1), with the reminder response attributable to the second half effective concentration (EC50,2). For radioligand binding experiments, B max values were calculated from maximum binding using the equation B max = (SB × ([…] + [L])/[L]), where SB is the specific binding expressed as fmol per mg of membrane protein, and [L] is the ligand concentration.

[2] = target: β3-AR; conditions: in presence of GTP; cited from earlier work
[3] = target: T1, α1A-AR (Homo sapiens, UniProt P35348); test: Ca2+ transient response (FLIPR, fluo3) in α1A-AR transduced HEK-293/EBNA cells; assay type: cell-based; design: expressed in transfected cells; host or cells: HEK-293/EBNA (baculovirus transduction, NaBu induction)
T1 sequence (P35348 1-466): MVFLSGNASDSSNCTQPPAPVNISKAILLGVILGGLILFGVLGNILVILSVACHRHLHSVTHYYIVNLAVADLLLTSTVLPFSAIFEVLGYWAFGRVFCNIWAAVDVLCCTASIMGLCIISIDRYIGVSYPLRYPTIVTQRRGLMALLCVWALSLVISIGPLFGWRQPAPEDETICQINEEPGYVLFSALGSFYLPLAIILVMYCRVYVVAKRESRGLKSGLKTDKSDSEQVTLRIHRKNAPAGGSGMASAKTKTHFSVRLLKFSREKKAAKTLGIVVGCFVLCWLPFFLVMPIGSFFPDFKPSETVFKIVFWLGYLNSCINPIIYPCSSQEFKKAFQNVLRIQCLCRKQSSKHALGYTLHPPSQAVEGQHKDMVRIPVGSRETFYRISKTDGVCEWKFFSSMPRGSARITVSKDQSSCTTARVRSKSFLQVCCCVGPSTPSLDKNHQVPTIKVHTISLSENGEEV
Procedure: as §1, §2, §3

[4] = target: T1, α1A-AR; test: Translocation of GFP-tagged β-arrestin-1/2 in HEK293 cells expressing FLAG-α1A-AR (confocal microscopy); assay type: cell-based; design: expressed in transfected cells; host or cells: HEK-293/EBNA (baculovirus transduction, NaBu induction); conditions: HEK293, 1 μM A-61603 or 1 mM Iso
Procedure: HEK293 cells were transiently co-transfected with FLAG-tagged α1A – AR and one of the following GFP-tagged proteins: Rab5 (Rab5 Q79L) variant, Rab11 (Rab11 S25N) variant, β-arrestin-1 or β-arrestin-2. Rab5 and Rab11 were kindly provided by Dr. Marino Zerial (Max Planck Institute of Molecular Cell Biology and Genetics, Dresden, Germany). […] After treatment, cells were fixed with freshly prepared 3.7% paraformaldehyde in PBS for 15 min at room temperature. Subsequently, cells were permeabilized with 0.1% Triton X-100 (Sigma-Aldrich) in PBS for 5 min, followed by nonspecific binding site blocking with 3% normal serum (Santa Cruz Biotechnology) in PBS for 1 h. Incubation with Alexa Fluor-568 conjugated anti-FLAG antibodies in blocking solution was done as directed by the manufacturer. Confocal microscopy was performed using a Zeiss LSM 510 META laser scanning microscope (Carl Zeiss, Inc., Thornwood, NY) equipped with a 60X objective, using the following laser wavelengths: excitation at 488 nm and emission at 505–530 nm; excitation at 543 nm and emission at 560–615 nm.
HEK293 cells were co-transfected with FLAG-tagged α1A – AR and GFP- tagged β-arrestin-1 (left panels) or β-arrestin-2 (right panels). […] Cells were then fixed, permeabilized, stained with Alexa Fluor-568 conjugated anti-FLAG antibodies, and analyzed employing confocal microscopy.

## CC(C)NCC(O)c1ccc(O)c(O)c1 (stereo not drawn) [Iso, isoproterenol]
[1]
  decline from peak amplitude within 100 sec: > 75%
  delay from addition of agonist to the rise in Ca2+: 5 to 10 s
[2]
  Ki: 1600 nM
[3]
  maximal response amplitude ΔF/F0 in presence of ICI 118,551: 1.3
[3]; 10 nM RS100329 pretreatment
  magnitude ΔF/F0 in presence of RS100329: 1.2
[3]; pertussis toxin 100 ng/mL, 18 h
  ΔF/F0, β2-AR-dependent phase: 1.5
[3]; vehicle (no PTX), Fig. 4B
  ΔF/F0, β2-AR-dependent phase: 1.3
[3]; α1A-AR transduced cells
  diminution of low potency phase of response in absence of extracellular Ca2+: approximately 50%
[4]
  translocation of β-arrestin-1 / β-arrestin-2: did not cause visible β-arrestin rearrangement
